Data on eight compounds can be found in patent US4001409A, “Injectable formulations of 7-[D-α-amino-α-(p-hydroxyphenyl)acetamido]-3-(1,2,3-triazol- 5-ylthiomethyl)-3-cephem-4-carboxylic acid” (priority 1975, dated 1977).

Broadly, the solubility is how much of the substance goes into solution per volume. A lower solubility goes with a poorly soluble substance.

In brackets after ≈: the same amount, converted by molar mass. Several values for one entry are separate records, joined by “and”; a condition that tells them apart may be missing. Equal values may be shown once. Where a name gives a salt, the structure may show the parent alone. Read-outs that look alike come from different tables or passages of the source.

Series [1] is described as follows: physchem. To be noted: water.
Series [2] is described as follows: pH of solution. The format is physicochemical.
The subject of series [3] is E. coli Juhl A15119. The series can be described thus: Minimum Inhibitory Concentration, tube dilution. Conditions: Escherichia coli, JUHLA15119.
Series [4] concerns E. coli A9675. Briefly: Minimum Inhibitory Concentration, tube dilution. It is filed as cell-based. Conditions: Escherichia coli.
In series [5] the test system is Str. pyogenes A9604. Briefly: Minimum Inhibitory Concentration, tube dilution. The format is cell-based. To be noted: Streptococcus pyogenes. The source says:
*50% Nutrient Broth - 45% Antibiotic Assay Broth

Series [6] has as its system Ps. aeruginosa A9843A. Briefly: microbe, parasite or virus in culture. To be noted: Pseudomonas aeruginosa.
In series [7] the test system is S. aureus Smith A9537. The series can be described thus: Minimum Inhibitory Concentration, tube dilution. To be noted: Staphylococcus aureus, at 10^-^4 dilution, overnight, 37° C. It is filed as cell-based.
Series [8] relates to S. aureus BX1633-2 A9606. Briefly: Minimum Inhibitory Concentration, tube dilution. The format is cell-based. Conditions: Staphylococcus aureus.
The test system of series [9] is Pr. mirabilis A9900. Briefly: Minimum Inhibitory Concentration, tube dilution. Conditions: Proteus mirabilis.
Series [10] has as its system K. pneumoniae A9977. Briefly: Minimum Inhibitory Concentration, tube dilution. Conditions: Klebsiella pneumoniae.
In series [11] the test system is Sal. enteritidis A9531. Briefly: Minimum Inhibitory Concentration, tube dilution. It is filed as cell-based. Conditions: Salmonella enterica.
Series [12] has as its system Ser. marcescens A20019. The series can be described thus: Minimum Inhibitory Concentration, tube dilution. To be noted: Serratia marcescens.
Series [13] relates to Ent. cloacae A9659. The series can be described thus: Minimum Inhibitory Concentration, tube dilution. Conditions: Enterobacter cloacae.
Series [14] relates to Ent. cloacae A9656. Briefly: Minimum Inhibitory Concentration, tube dilution. Conditions: Enterobacter cloacae.
Series [15] deals with Pr. morganii A15153. The series can be described thus: Minimum Inhibitory Concentration, tube dilution. To be noted: Morganella morganii.
The test system of series [16] is Ent. cloacae A9657. Briefly: Minimum Inhibitory Concentration, tube dilution. Conditions: Enterobacter cloacae.
For series [17], the system named is K. pneumoniae A15130. The series can be described thus: Minimum Inhibitory Concentration, tube dilution. Conditions: Klebsiella pneumoniae.
The subject of series [18] is S. aureus meth.-resist. A15097. Briefly: Minimum Inhibitory Concentration, tube dilution. The format is cell-based. Conditions: Staphylococcus aureus.
Series [19] deals with D. pneumoniae A9585. Briefly: Minimum Inhibitory Concentration, tube dilution. Conditions: Streptococcus pneumoniae.
A short description of series [20]: Blood levels in mice after intramuscular administration. To be noted: mouse, im, 10 mg/kg.
Series [21] is described as follows: Blood levels in mice after oral administration. To be noted: mouse, 100 mg/kg.
Series [22] in a line: Bio-assay.
The conditions of series [23]: known forms; cannot be administered intravenously; cited from earlier work.
Series [24] has as its system vein and muscle. To be noted: in vivo.
The nature of series [25]: Heat stability of solids. The format is physicochemical. To be noted: for Stability (loss): 1 month at 56° C., 43800 min; for Heat stability (loss): Procedure D.
Series [26] is described as follows: Solubility in water / concentration of true solutions.
Series [27] in a line: Stability of aqueous solutions. To be noted: alkaline pH, i.e. pH~7.0 or higher. It is filed as physicochemical. The source says:
A. Stability of Aqueous Solutions of Amorphous
Monohydrate and Sodium Levulinate Mixture at […]

The test system of series [28] is Gram-positive and Gram-negative organisms. Conditions: oral and parenteral; cited from earlier work.
Where [29] appears, read: +5% serum, 50% Nutrient Broth - 45% Antibiotic Assay Broth, overnight, 37° C., read-out: M.I.C.
Setting [30] is: BX16332A9606, at 10^-^2 dil'n, overnight, 37° C.
Setting [31] is: at 10^-^4 dilution, overnight, 37° C., read-out: M.I.C.

`CC(=O)CCC(=O)[O-].[Na+]` [sodium levulinate] gave a solubility in [1] of more than 300 mg/mL. Also, the pH in series [2] is reported as 6.5-8.0.

Consider `CC(=O)OCC1=C(C(=O)O)N2C(=O)[C@@H](NC(=O)Cc3cccs3)[C@H]2SC1` [Cephalothin], for which the MIC in series [3] was 8 µg/mL (≈ 20.2 µM); in [4] it was 32 µg/mL (≈ 80.7 µM); in series [5] (setting [29]), 0.06 µg/mL (≈ 0.151 µM); in series [6] it was more than 125 µg/mL; in [7] (SMITHA9537, +50% serum), 0.5 µg/mL (≈ 1.26 µM); in series [8] (BX16332A9606), 0.25 µg/mL (≈ 0.631 µM). In addition, the MIC in [8] (setting [30]) was 0.25 µg/mL (≈ 0.631 µM); in [9], 1 µg/mL (≈ 2.52 µM); in series [10], 2 µg/mL (≈ 5.04 µM); in [11] (setting [31]), 0.06 µg/mL (≈ 0.151 µM); in series [12], more than 125 µg/mL; in series [13], more than 125 µg/mL. Further, the MIC is more than 125 µg/mL in series [14]; more than 125 µg/mL in series [15]; 2 µg/mL (≈ 5.04 µM) in series [16]; 16 µg/mL (≈ 40.4 µM) in [17]; 4 µg/mL (≈ 10.1 µM) in [18]; 1 µg/mL (≈ 2.52 µM) in series [18] (at 10^-^3 dil'n, 37° C).

For the compound `CC1=C(C(=O)O)N2C(=O)[C@@H](NC(=O)[C@H](N)c3ccccc3)[C@H]2SC1` [Cephalexin], the MIC is 8 µg/mL (≈ 23 µM) in series [3]; 16 µg/mL (≈ 46.1 µM) in series [4]; 0.5 µg/mL (≈ 1.44 µM) in [5]; 2 µg/mL (≈ 5.76 µM) in series [7] (SMITHA9537, +50% serum, read-out: M.I.C.); 1 µg/mL (≈ 2.88 µM) in [7] (SMITHA9537, read-out: M.I.C.); 2 µg/mL (≈ 5.76 µM) in series [8] (BX16332A9606, at 10^-^3 dil'n, overnight, 37° C., read-out: M.I.C.). The MIC was 4 µg/mL (≈ 11.5 µM) in series [9]; 4 µg/mL (≈ 11.5 µM) in [10]; 4 µg/mL (≈ 11.5 µM) in [11]; more than 125 µg/mL in series [12]; more than 125 µg/mL in series [13]; more than 125 µg/mL in series [14]. The MIC in series [16] was 4 µg/mL (≈ 11.5 µM); in [17], 8 µg/mL (≈ 23 µM); in series [19], 1 µg/mL (≈ 2.88 µM); in [18] (at 10^-^3 dil'n, 37° C), 16 µg/mL (≈ 46.1 µM); in series [18] (at 10^-^3 dil'n, 28° C, read-out: M.I.C.), 32 µg/mL (≈ 92.1 µM).

Take `N[C@@H](C(=O)NC1C(=O)N2C(C(=O)O)=C(CSc3cnn[nH]3)CSC12)c1ccc(O)cc1` (stereo partly drawn) [Cephalosporin 1,2-propylene glycolate, 7-[D-α-amino-α-(p-hydroxyphenyl)acetamido]-3-(1,2,3-triazol-5-ylthiomethyl)-3-cephem-4-carboxylic acid 1,2-propylene glycolate]: the MIC is 1 µg/mL (≈ 2.16 µM) in [3]; 4 µg/mL (≈ 8.65 µM) in series [4] (setting [31]); 0.03 µg/mL (≈ 0.0649 µM) in [5] (setting [29]); more than 125 µg/mL in series [6]; 2 µg/mL (≈ 4.32 µM) in [7] (SMITHA9537, +50% serum); 0.25 µg/mL (≈ 0.541 µM) in series [7] (SMITHA9537, read-out: M.I.C.). In addition, the MIC was 2 µg/mL (≈ 4.32 µM) in series [8] (setting [30]); 0.5 µg/mL (≈ 1.08 µM) in series [8] (BX16332A9606, at 10^-^3 dil'n, overnight, 37° C.); 0.5 µg/mL (≈ 1.08 µM) in series [9]; 1 µg/mL (≈ 2.16 µM) in [10]; 0.5 µg/mL (≈ 1.08 µM) in series [11]; more than 125 µg/mL in series [12]. The MIC in series [13] is 32 µg/mL (≈ 69.2 µM); in series [14] it was more than 125 µg/mL; in series [15] it was 32 µg/mL (≈ 69.2 µM); in series [16], 1 µg/mL (≈ 2.16 µM); in [17], 2 µg/mL (≈ 4.32 µM); in series [19], 0.13 µg/mL (≈ 0.281 µM). Moreover, in series [20], the concentration at 0.5 h came out at 17400 ng/mL. The concentration at 1 h in series [20] came out at 12300 ng/mL; in series [21] it was 44700 ng/mL. The same compound returned a concentration at 1.5 h in series [20] of 9000 ng/mL. Further, the concentration at 2 h in series [21] came to 26600 ng/mL. The concentration at 3.5 h in [21] is 9700 ng/mL. In addition, in series [21], the concentration at 9.5 h came to 45800 ng/mL. The Bio-assay in series [22] was 880-890 units/mg. Besides, the solubility in water entry in series [23] was “relatively low solubility in water”.

As for `N[C@@H](C(=O)NC1C(=O)N2C(C(=O)O)=C(CSc3cnn[nH]3)CSC12)c1ccc(O)cc1` (stereo partly drawn) [amorphous mono-hydrochloride, 7[D-α-amino-α-(p-hydroxyphenyl)acetamido]-3-(1,2,3-triazol-5-ylthiomethyl)-3-cephem-4-carboxylic acid amorphous mono-hydrochloride], the “venous irritation and muscle damage” value in series [24] is “significant venous irritation and muscle damage”. Also, the “Stability (loss)” value in [25] (Procedure Da) and in series [25] (Procedure Db) was “Less than 10%” throughout. The “Heat stability (loss)” value in [25] (56° C., 4 weeks, 40320 min) is 1-6%; in [25] (100° C., 24 hours), 7-14%; in [25] (100° C., 48 hours), 10-15%. The Bio-assay in series [22] (mono-hydrochloride) was 900 µg/mg and 820 to 850 µg/mg.

In [26], `CC(=O)C(=O)[O-].[Na+]` [sodium pyruvate] yielded a solubility of more than 500 mg/mL. The pH in [2] is 6.5-8.0.

For the compound `N[C@@H](C(=O)NC1C(=O)N2C(C(=O)O)=C(CSc3cnn[nH]3)CSC12)c1ccc(O)cc1` (stereo partly drawn) [amorphous monohydrate, 7-[D-α-amino-α-(p-hydroxyphenyl)acetamido]-3-(1,2,3-triazol-5-ylthiomethyl)-3-cephem-4-carboxylic acid amorphous monohydrate], the Bio-assay in series [22] (monohydrate) is recorded as 900-935 units/mg.

For the compound `N[C@@H](C(=O)NC1C(=O)N2C(C(=O)O)=C(CSc3cnn[nH]3)CS[C@H]12)c1ccc(O)cc1` (stereo partly drawn) [compound I, 7-[D-α-amino-α-(p-hydroxyphenyl)acetamido]-3-(1,2,3-triazol-5-ylthiomethyl)-3-cephem-4-carboxylic acid], in [27], the “splitting off of the triazole moiety at the 3-position” value is “found to split off rapidly at alkaline pH”. Besides, the “therapeutic effectiveness against infections” value in series [28] is “therapeutically effective against infections caused by both Gram-positive and Gram-negative organisms”. In series [23], the solubility in water entry is on record as “relatively low solubility in water”.
